The values below come from EP0610943A1, “Pyridinium derivatives useful as PAF antagonists” (J. URIACH & CIA. S.A., priority 1993, dated 1994).

Test [1] deals with Platelet aggregation induced by PAF. As to the kind of experiment: Inhibition of platelet aggregation induced by PAF (Born nephelometric technique, platelet-rich plasma). The test is classed as cell-based, male New Zealand rabbits. The note with it: rabbit platelet-rich plasma, platelet count 3x10⁵/mm³; PAF (C₁₈) 15 nM; read-out: IC₅₀. How it is done: Inhibition of platelet aggregation induced by PAF
Platelet-rich plasma (PRP) was prepared by centrifuging the blood at 250xg for 10 min at 4°C and then it was diluted with platelet-poor plasma (PPP) obtained by further centrifuging at 3000xg for 10 min. The platelet count was adjusted to 3x10⁵/mm³. […] The activities of the inhibitors were expressed as the IC₅₀ value, that is to say the concentration of the drug needed to inhibit platelet aggregation by 50%.

The next test deals with PAF-induced hypotension. As to the kind of experiment: Inhibition of the hypotensive effect induced by PAF in normotensive rats. The class given is in vivo, Male Sprague Dawley rats. The note with it: i.v. through the femoral vein 3 min before PAF injection (0.5 mcg/kg, i.v.); anaesthetized rats. The method, then:
Inhibition of the hypotensive effect induced by PAF in normotensive rats.
Male Sprague Dawley rats (b.w. 180-220 g) anaesthetized with sodium pentobarbital (50 mg/kg, i.p. 1mL/100 g) were used. In order to measure the arterial pressure, a polyethylene catheter was introduced into the carotid artery. The arterial pressure was recorded with the help of a transducer coupled to a R611 Beckman polygraph. The test compounds were administered through the femoral vein 3 min before PAF injection (0.5 mcg/kg, i.v.). Control animals received only the vehicle. […]

Test [2] deals with ear oedema induced by arachidonic acid. As to the kind of experiment: Rodent ear oedema induced by arachidonic acid. The test is classed as in vivo, Swiss, male mice. As to conditions: topical in acetone 30 min before irritant; 10% arachidonic acid, 2 mg/ear; read at 1 h; mouse ear. The method, then: (§1) Rodent ear oedema induced by application of several irritant agents
(§2) Groups of 8-10 Swiss, male mice, 6-8 weeks old, were used in the experiments. Animals had free access to food and water. Irritant dermatitis was elicited by painting both faces of the left ear of the mouse with 20 µL (10 µL each face) of the inflammatory agents. Concentrations (w/v) of the irritants were: 10% arachidonic acid and 0.01% TPA (12-O-tetradecanoylphorbol 13-acetate), both dissolved in acetone. Total applied doses were 2 and 0.002 mg/ear, respectively. Treatment was effected by application of a total of 20 µL of the test compound dissolved in acetone to both faces of the left ear of the mouse 30 min before the application of the irritant agent. Control animals received only the vehicle. At 1 h (arachidonic acid) and 6 h (TPA) after administration of the irritant, animals were killed by cervical dislocation. An 8 mm diameter punch biopsy was performed on each ear, the right (untreated) ear being the control for each animal. The swelling induced by the irritant was quantified as the percentage increase in the weight of the left ear biopsy over that of the right ear biopsy.

Test [3] concerns ear oedema induced by TPA (12-O-tetradecanoylphorbol 13-acetate). Kind of test: Rodent ear oedema induced by TPA. The class given is in vivo, Swiss, male mice. The note with it: topical in acetone 30 min before irritant; 0.01% TPA, 0.002 mg/ear; read at 6 h; mouse ear. The method, then: as §1
as §2, with “This test was performed according to the method described by Young et al. (Pharmacological Methods in the Control of Inflammation., ed. Chang, J.Y. & Lewis, A.J. pp 215-231. New York: Alan R. Liss, 1989). Groups” for “Groups”, “biopsy. Percentage inhibition of oedema was calculated according to the following formula: [formula] Activity of the inhibitors was expressed as the ID₅₀ value, i.e. the amount of compound by weight of animal (dose) required to inhibit the increase in weight by 50%, with respect to control animals.” for “biopsy.”

Consider “5-Bromo-3-[N-(2-ethoxycarbonylamino)ethyl-N-phenyl]carbamoyl-1-propylpyridinium chloride [Compound 2]”, for which, in test [1], the IC50 came out at 4.2 nM. This compound came in with an ID₅₀ with PAF-induced hypotension of 0.039 mg/kg.
Consider “5-Bromo-3-[N-[2-(2-iodoethoxy)carbonylamino]ethyl-N-phenyl]carbamoyl-1-propylpyridinium chloride [Compound 4]”, for which the IC50 in test [1] came to 16 nM.
Regarding “5-Bromo-3-[N-[2-(2-iodoethoxy)carbonylamino]ethyl-N-phenyl]carbamoyl₋1-propylpyridinium iodide [Compound 3]”, the IC50 in test [1] is 10 nM. In test [2], the “ID₅₀ Arachidonic acid” value is 0.3-1 mg/ear. In addition, in test [3], the “ID₅₀ TPA” value came to 0.76 mg/ear.
As to “5-Bromo-3-[N-[2-(4-fluorobenzyloxy)carbonylamino]ethyl-N-phenyl]carbamoyl-1-propylpyridinium iodide [Compound 9]”, in test [1], the IC50 amounted to 3.8 nM. This compound gave an ID₅₀ with PAF-induced hypotension of 0.079 mg/kg. The “ID₅₀ Arachidonic acid” value in test [2] is “≈1 mg/ear”. Further, the “ID₅₀ TPA” value in test [3] is 0.3-1 mg/ear.
On the same counts, the results for `CCC[n+]1cc(Br)cc(C(=O)N(CCNC(=O)OCC)c2ccccc2)c1.[I-]` [Compound 1, 5-Bromo-3-[N-(2₋ethoxycarbonylamino)ethyl-N-phenyl]carbamoyl-1-propylpyridinium iodide] are 18 nM, 0.046 mg/kg, 0.31 mg/ear and 0.31 mg/ear.
On the same counts, the results for `CCC[n+]1cc(Br)cc(C(=O)N(CCN2CCOC2=O)c2ccccc2)c1.[I-]` [Compound 5, 5-Bromo-3-[N-[2-(2-oxo-1,3-oxazolidin-3-yl)ethyl-N-phenyl]carbamoyl]-1-propylpyridinium iodide] are 36 nM, 0.16 mg/kg, “≧1 mg/ear” and 0.68 mg/ear.
Taken in the same sequence, the figures for `CCC[n+]1cc(Br)cc(C(=O)N(CCOC(=O)NCCI)c2ccccc2)c1.[I-]` [Compound 7] were 2.1 nM, less than 0.025 mg/kg, 0.50 mg/ear and 0.20 mg/ear.
Take `CCC[n+]1cc(Br)cc(C(=O)N(CCNC(=O)OCC(F)(F)C(F)(F)F)c2ccccc2)c1.[I-]` [Compound 8, 5-Bromo-3-[N-[2-(2,2,3,3,3-pentafluoropropoxy)carbonylamino]ethyl-N-phenyl]carbamoyl-1-propylpyridinium iodide]: the IC50 in test [1] was found to be 4.2 nM. Besides, the “ID₅₀ Arachidonic acid” value in test [2] was “≈1 mg/ear”. Further, the “ID₅₀ TPA” value in test [3] is given as 0.3-1 mg/ear.
Take `CCC[n+]1cc(Br)cc(C(=O)N(CCNC(=O)c2ccc(C(F)(F)F)cc2)c2ccccc2)c1.[I-]` [Compound 10]: the IC50 in test [1] came out at 4.5 nM. Further, the “ID₅₀ Arachidonic acid” value in test [2] is “≈1 mg/ear”. Moreover, the “ID₅₀ TPA” value in test [3] is 0.3-1 mg/ear.
In the case of `CCC[n+]1cc(Br)cc(C(=O)N(CCNC(=O)c2ccc(C(F)(F)F)cc2)c2ccccc2)c1.[Cl-]` [Compound 11, 5-Bromo-3-[N-[2-[(4-trifluoromethyl)phenyl]carbonylaminolethyl-N-phenyl]carbamoyl-1-propylpyridinium chloride], the IC50 in test [1] was determined as 23 nM.
`CCC[n+]1cc(Br)cc(C(=O)N(CCNC(=O)c2ccc(C(F)(F)F)cc2)c2ccccc2)c1.[Cl-]` [Compound 11]: the ID₅₀ in the test on PAF-induced hypotension is given as 0.022 mg/kg.
Consider `Cl.O=C(Cc1ccc(OCc2ccc3ccccc3n2)cc1)NCCN(C(=O)c1cncc(Br)c1)c1ccccc1` [Compound 13, 5-Bromo-3-[N-[2-[p-(2-quinolylmethoxy)phenyl]acetylamino]ethyl-N-phenyl]carbamoylpyridinium chloride], for which, in test [1], the IC50 amounted to 52 nM. The ID₅₀ in the test with PAF-induced hypotension is on record as 0.0065 mg/kg. Moreover, the “ID₅₀ Arachidonic acid” value in test [2] is more than 0.3 mg/ear. Moreover, the “ID₅₀ TPA” value in test [3] is recorded as more than 0.1 mg/ear.
As for `Cl.O=C(NCCN(C(=O)c1cncc(Br)c1)c1ccccc1)c1cccc(OCc2ccc3ccccc3n2)c1` [Compound 15, 5-Bromo-3-[N-[2-[3-(2-quinolylmethoxy)phenyl]carbonylamino]ethyl-N-phenyl]carbamoylpyridinium chloride], the “ID₅₀ TPA” value in test [3] is “≦0.1 mg/ear”.
For the compound `Cl.O=C(NCCN(C(=O)c1cncc(Br)c1)c1ccccc1)c1ccc(OCc2ccc3ccccc3n2)cc1` [Compound 17, 5-Bromo-3-[N-[2-[p-(2-quinolylmethoxy)phenyl]carbonylamino]ethyl-N-phenyl]carbamoylpyridinium chloride], the “ID₅₀ TPA” value in test [3] was less than 0.1 mg/ear.
